Assays:
[1] = tested on: MDA-MB-231, MDA-MB-468 and MCF-7 cell lines; assay: Clonogenic assay or colony forming assay; format: cell-based, human; details: IC10, IC30, IC50 for 48 h, then 14 days drug-free
Experimental: MDA-MB-231, MDA-MB-468 and MCF-7 cell lines were seeded in RPMI 1460 with 10% FCS, at a density of 1500 cells/well in six well plates. […] The medium was removed at the end of the treatment and incubated in fresh medium (without drug) for 14 days. After 14 days the medium was aspirated and colonies were fixed with methanol and acetic acid mixture in the proportion of 2:1, rinsed with water and the fixation procedure was repeated. The plates were dried and colonies stained with 0.1% crystal violet for 5 min. The wells were finally rinsed with water and dried.

[2] = tested on: MDA-MB-231; assay: Cell cycle progression and apoptosis by flow cytometry (sub-G1); format: cell-based, human; details: for % Apoptosis: 4.5 μM
Experimental: Time dependent effect of Compound A on cell cycle progression and apoptosis was evaluated in two breast cancer cell lines. The asynchronous human breast cancer cell lines MCF-7 (Her low, ER+, PR+, BRCA+/−allelic loss) and MDA-MB-231 cells were seeded in […] tissue culture flask at a density of 0.5×10^6 cells per flask in RPMI 1460 with 10% FCS. After 24 h, cells were treated with 4.5 μM of Compound A for 0, 24, 48 and 72 h. Both detached and adherent cells were harvested (trypsinised) at different time points as mentioned in Table 3. After washing in phosphate buffered saline (PBS), cells were fixed in ice-cold 70% ethanol and stored at −20° C. until further analysis.
Before analysis, cells were washed twice with PBS to remove the fixative and re-suspended in PBS containing 50 μg/mL propidium iodide and 50 μg/mL RNaseA. After incubation at room temperature (20-35° C.) for 20 min, cells were analyzed using flow cytometry. A Becton Dickinson FACS Calibur flow cytometer (BD, USA) was used for these studies. The argon ion laser set at 488 nm was used as an excitation source. Cells with DNA content between 2n and 4n were designated as being in G1, S and G2/M phases of the cell cycle, as defined by the level of red fluorescence. […] The number of cells in each cell cycle compartment was expressed as a percentage of the total number of cells present. The results are shown in Table 3 and graphically presented in FIG. 3A (MCF-7 cell lines) and FIG. 3B (MDA-MB-231 cell lines).
Comparison of the effect of Compound A and PARP inhibitor BSI-201 (Iniparib developed by Sanofi-Aventis. BSI-201 is prepared in-house) on cell cycle progression and apoptosis was evaluated in two TNBC cell lines. The asynchronous human TNBC cell lines MDA-MB-231 and MDA-MB-468 were seeded in […] tissue culture flask at a density of 0.5×10^6 cells per flask in RPMI 1460 with 10% FCS. After 24 h, cells were treated either with 1.5 and 3.0 μM of Compound A or 50 μM of PARP inhibitor BSI-201 for 72 h. After the incubation cells were harvested (trypsinised) and processed as given in example 6.

[3] = tested on: Rb; assay: Western blot of cell cycle proteins in MCF-7; format: cell-based, human; details: 1.5 μM, 3, 6, 9, 12 and 24 h
Experimental: (§1) MCF-7 cells were seeded in RPMI 1460 medium with 10% FCS in […] tissue culture flask and incubated for 24 h. These cells were treated with Compound A at 1.5 μM. At various time points viz. 3 h, 6 h, 9 h, 12 h and 24 h the cells were harvested (trypsinised) and lysed using lysis buffer. Protein content was estimated by Bradford method (Anal. Biochem., 1976, 72, 248-254). Lysate was applied to Sodium Dodecyl Sulphate-Polyacrylamide Gel Electrophoresis (SDS-PAGE) followed by Western blotting. Western blotting was done using specific antibodies to various cell cycle proteins viz. cyclin D1, CDK4, Rb and pRbSer780.

[4] = tested on: cyclin D1; assay: Western blot of cell cycle proteins in MCF-7; format: cell-based, human; details: 1.5 μM, 3, 6, 9, 12 and 24 h
Experimental: as §1

[5] = tested on: pRbSer780; assay: Western blot of cell cycle proteins in MCF-7; format: cell-based, human; details: 1.5 μM, 3, 6, 9, 12 and 24 h
Experimental: as §1

[6] = tested on: HIF-1α; assay: HIF-1α reporter gene based assay (U251 HRE); format: cell-based; details: hypoxia (<1% O2), 0.01-10 μM, 20 h
Text: 1) U251 HRE: The genetically engineered cells U251 HRE which stably express a recombinant vector in which the Luciferase reporter gene is under control of three copies of a canonical HRE. 2) U251 pGL3: A control cell line contains the firefly Luciferase reporter gene under control of the constitutively active SV40 promoter and enhancer that helps to exclude compounds that inhibit Luciferase expression in a nonspecific and/or HIF-1-independent fashion. These cells expressed high basal levels of Luciferase in normoxic conditions and slightly lower levels in hypoxic conditions.
U251 HRE cells were inoculated into 96 well white flat-bottomed plates at 10000-15000 cells/well in a volume of 180 μL and incubated for 24 h at 37° C., 5% CO2, and ambient O2. Compound A was tested at various concentrations viz. […] After 20 h incubation, the plates were removed and incubated at room temperature, 5% CO2, and ambient O2 for 1.5 h. 40 μL of Bright Glo Luciferase reagent (Promega™, USA) was added and after 3 min, luminescence was measured using a Polar Star Plate Reader (USA) in luminescence mode. Appropriate control cells (U251 pGL3) were treated identically, except that they were treated at 37° C., 5% CO2 and ambient O2. Compound toxicity was assayed using the MTS assay.

[7] = tested on: MCF-7, BT-549 and MDA-MB-231 cell lines; assay: Wound healing assay (cell migration); format: cell-based, human; details: 1 μM and 3 μM; 24 h
Experimental: The wound-healing assay is simple, inexpensive, and one of the earliest developed methods to study directional cell migration in vitro. This method mimics cell migration during wound healing in vivo.
Protocol: • 1. MCF-7 cells were seeded in RPMI 1460 medium with 10% FCS in […] tissue culture flask and incubated for 24 h. • 2. The cells were trypsinized and seeded at a density of (0.5−2.0)×10^6 per well in a sterile 6 well plate. • 3. The plate was incubated for about 16 h in humidified CO2 incubator (5% CO2) at 37° C. under ambient oxygen levels. […] The required number of cells for a confluent monolayer depends on both the particular cell type and size of dishes. • 4. The cell monolayer in a straight line was scraped evenly to create a “scratch” with a pipette tip. The first image of the scratches was captured before addition of the compound. • 5. Compound A was added at concentrations of 1 μM and 3 μM. • 6. The plates were then kept in the incubator for further incubation. The time frame for incubation was determined empirically for the particular cell type used. • 7. After the incubation, the dish was placed under a phase contrast microscope (Zeiss Axio Observer, Germany), reference point was matched, the photographed regions of the first image were aligned and the second image was captured. For each image distances between one side of the scratch and the other were measured. […]

CN1CC[C@@H](c2c(O)cc(O)c3c(=O)cc(-c4ccccc4Cl)oc23)[C@@H]1CO.Cl [Compound A, (+)-trans-2-(2-Chloro-phenyl)-5,7-dihydroxy-8-(2-hydroxymethyl-1-methyl-pyrrolidin-3-yl)-chromen-4-one hydrochloride]
colony forming potential [1]: inhibit the colony forming potential in a dose dependent manner | % apoptosis at 72 h ([2]; 1.5 μM, 72 h): 27.45% | % apoptosis at 72 h ([2]; 3 μM, 72 h): 41.53% | % Apoptosis ([2]; 0 h): 1% | % Apoptosis ([2]; 24 h): 45% | % Apoptosis ([2]; 48 h): 85% | % Apoptosis ([2]; 72 h): 85% | total Rb [3]: no significant change in total Rb except at 24 h | Cyclin D1 expression [4]: decrease from 6 h onwards and significantly at 12 h | pRb expression [5]: decrease from 6 h onwards and significantly at 12 h | expression of HIF-1α (luciferase reporter) [6]: effectively blocked the expression of HIF-1α in a dose dependent manner | cell migration (wound healing) [7]: potent anti migratory effect

Source: patent US20130237582A1, “PHARMACEUTICAL COMBINATION OF PACLITAXEL AND A CDK INHIBITOR” (Piramal Enterprises Limited, priority 2010, published 2013)
